Experimental data from article PMC12867150, “A fungi-derived cyclic peptide enhances Th9-mediated antitumor immunity by targeting ZAP70 and SREBP1” (The Journal of Clinical Investigation, 2025).
“And” between values parts separate entries of the source, which are not always exact repeats. Equal entries are not always repeated.

Legend:
Th2 cells = assay: Th2 polarization, IL-4 by flow cytometry (Figure 1G); format: cell-based, mouse
Protocol: Naive CD4^+ T cells were isolated from the spleens of C57BL/6J or CD45.1^+ OT-II mice using the MojoSort Mouse CD4 Naive T Cell Isolation Kit (BioLegend, catalog 480040), following the manufacturer’s protocol. Purified cells were cultured in RPMI-1640 medium supplemented with 10% FBS, 1% penicillin-streptomycin, and 0.1% β-mercaptoethanol (Gibco, catalog 21985023).
T cell polarization was initiated under plate-bound anti-CD3 (2 μg/mL, clone 17A2, BioXCell, catalog BE0002) and soluble anti-CD28 (1 μg/mL, clone 37.51, BioXCell, catalog BE0015-1) stimulation, with the addition of cytokines and neutralizing antibodies specific to each subset. For Th9 cells, these included IL-4 (10 ng/mL, Peprotech, catalog 400-04), TGF-β (1 ng/mL, EPOTO Biotech, catalog HF-2021), anti–IL-12 (5 μg/mL, clone C17.8, BioXCell, catalog BE0051), and anti–IFN-γ (10 μg/mL, clone XMG1.2, BioXCell, catalog BE0055); for Th1 cells, these included IL-12 (10 ng/mL, GenScript, catalog Z03211-50) and anti–IL-4 (5 μg/mL, clone 11B11, BioXCell, catalog BE0045); for Th2 cells, these included IL-4 (50 ng/mL), anti–IFN-γ (20 μg /mL), anti–IL-12 (5 μg/mL), Th17 cells: IL-6 (20 ng/mL, EPOTO Biotech, catalog MF-1006), TGF-β (1 ng/mL), IL-1β (10 ng/mL, Peprotech, catalog AF-211-11B), anti–IFN-γ (10 μg/mL), anti–IL-12 (5 μg/mL), and anti–IL-4 (5 μg/mL); and for Tregs, these included TGF-β (3 ng/mL). […]

[1] = tested on: lipid species of Th9 cells; assay: Untargeted lipidomics of Th9 cells (Figure 6B); format: cell-based, mouse; conditions: day 4; result in words
Protocol: Comprehensive lipidomic profiling was performed using a liquid chromatography–mass spectrometry (LC-MS) platform. Briefly, samples were first subjected to protein precipitation and impurity removal to ensure metabolite integrity. Lipid species were then extracted using a solvent-based protocol optimized for broad lipid class coverage. LC-MS analysis was conducted in both positive and negative ionization modes to maximize lipid detection breadth. Mass spectrometry data, including MS and MS/MS spectra, were acquired using a high-resolution instrument. Lipid identification and quantification were performed using LipidSearch software (Thermo Fisher Scientific), which generated a lipid expression matrix for downstream statistical and pathway analysis.

anteiso-C15 Leu7 surfactin [EpA]
IL-4 expression under Th2 polarization (Th2 cells; EpA 10 μM, individual replicates, n = 4): 38.3947 and 41.0302 and 36.7821 and 38.8006 | effect on Th2 differentiation (Th2 cells; result in words): only a minor increase in Th2 differentiation | lipid species [1]: global reduction in lipid species
